# Assay results reported in US11415493B2, “Detection of cells in a liquid sample” (DELTA INSTRUMENTS B.V., priority 2016, dated 2022).
# “Also recorded” adds a separate entry of the source. Read-outs that look alike come from different tables or passages of the source.
# What was measured:
# bacteria in milk samples = assay: Individual bacterial count (IBC) in milk samples with different cell-impermeant dyes, flow cytometer; format: cell-based
# Method: The nucleic acid dyes, Evagreen®, SYTOX® Green and Propidium iodide where tested against GelGreen™ (the reference method). […] Nucleic acid dyes Evagreen®, SYTOX® Green and propidium iodide were tested using the same staining and incubation conditions as for the reference method only differing in the type of dye comprised in the staining composition. Evagreen® was used at a concentration of 1.25 μM in the staining composition. SYTOX® Green and Propidium iodide were used at a concentration of 5 μM in the staining composition. Three different types of milk were used: Locally obtained raw bulk tank milk from a farm and dairy plant where collected at a local farmer. This milk is referred to as fresh raw milk and is not older than 24 hours. 24 hour and 48 hour old milk were obtained from a dairy plant. […] For this purpose E. coli was grown overnight (approx. 15 h) in TSB at 32° C. The dead bacterial where obtained by heating the grown E. coli at 110° C. for 10 minutes. An amount of 200 μl of E. coli (living or dead/damaged) is added to 45 ml fresh raw bulk milk. Both living and dead are from the same culture tube and exactly the same amount is put in the 45 ml Fresh raw milk. All the milk samples are kept at 4° C. until analyzed. […] Finally, the samples were analyzed on the flow cytometer and the fluorescent signals from the bacteria were detected and a count per unit volume was determined. […]
# cells = details: cited from earlier work
# E. coli = assay: Staining E. coli culture with different nucleic acid dyes, flow cytometer counts (FL1FL2 region); format: cell-based, Escherichia coli
# Method: First, an experiment was performed to confirm that bacterial counts obtained on the flow cytometer using GelGreen™ did correlate with traditional plate counts. For this, the Petrifilm method was selected (Standard Methods for Examination of Dairy Products 17th Edition 2004. Edited by H. M. Wehr and J. R. Frank. American Public Health Association, 800 I Street, NW, Washington D.C. 200001. Chapter 6.040), rather than a poured agar plate method, because of ease of use. Escherichia coil (E. coli) cultures were grown at 36° C. in Trypticase Soy Broth (TSB) in a culture tube. A staining composition was prepared as follows: The nucleic acid dye GelGreen™ (from Biotium) was diluted to 1× from the 10,000× commercially available stock, into Tris-buffered saline (100 mM Trizma base, 100 mM Trizma HCl, 150 mM NaCl, pH 8.5), which was preheated to 50° C. The used dilution of 1:10,000 of the GelGreen™ is in accordance with the manufacturer's recommendation for using GelGreen™ for the purpose it was intended for, namely staining DNA in an agarose gel. This is the dilution of GelGreen™ used in all the examples herein. The E. coli culture was removed from the 36° C. incubator and a small volume was diluted 1:100 into the preheated staining composition and incubated for approximately 4.5 min at 50° C. The stained E. coli was analyzed on the flow cytometer and the FL1 (Bandpass 531 nm (519-551)) and FL2 (Long pass >550 nm) fluorescence channels were used to identify the stained bacteria (FIGS. 1A and 1C). A rectangular region was defined around the positively stained cells identified as live cells in the FL1 versus FL2 2-dimensional correlation plot (FIG. 1B). A count per mL of the E. coli was obtained from the flow cytometry analysis. The E. coli culture was then diluted in TSB to obtain 3 different concentrations (1:10, 1:100 and 1:1000, respectively). The E. coli cultures were kept at 4° C. to minimize further growth until analysis. Each dilution of E. coli was stained with the GelGreen™ reagent, analyzed on the flow cytometer and counts for each dilution were obtained. Each E. coli culture was also appropriately diluted in Butterfield's PBS and 1 mL of the appropriately diluted culture was plated on Petrifilms in duplicate. The Petrifilms were placed in a 30° C. incubator, removed after 48 hrs and the colonies on each Petrifilm were counted using an automated colony counter. An average CFU/mL for each E. coli dilution was obtained. The Log of the flow cytometer bacterial counts using GelGreen™ was plotted versus the Log CFU counts from the Petrifilm (FIG. 2).
# To show where the bacteria in the FL1 and FL2 signal plots can be expected, bacteria were first counted in the staining composition without adding any milk. A culture of E. coli were grown at 36° C. in Trypticase Soy Broth (TSB) in a culture tube. The nucleic acid dye GelGreen™ was diluted into Tris-buffered saline, at approximately pH 8.5, which was preheated to 50° C. The E. coli culture was removed from the 36° C. incubator and a small volume was diluted 1:100 into the preheated staining composition and incubated for approximately 4.5 min at 50° C. The stained E. coli was analyzed on the flow cytometer and the FL1 and FL2 fluorescence channels were used to identify the stained bacteria (FIG. 3A).
# A culture of E. coli was grown at 36° C. in Trypticase Soy Broth (TSB), stained with GelGreen™ and counted on the flow cytometer (FIG. 5) as described in example 2. The E. coli culture was then kept at 4° C. until stained with other nucleic acid dyes. The nucleic acid dyes TOTO®-1 and SYBR® Safe (both from Thermo Fisher Scientific) were selected as alternatives. […] Both dyes have similar spectral properties to GelGreen™ and were diluted in Tris-buffered saline using the same dilution factor as GelGreen™. […]
# bacteria in raw milk = assay: Initial staining of bacteria in raw milk diluted in saline buffer, flow cytometer; format: cell-based
# Method: During initial work, raw milk was diluted in a buffer solution and the cell permeant nucleic acid stain SYTO® 9 was used to stain the bacteria contained in the milk. A flow cytometer, equipped with a 488 nm laser as the light source, forward and right angle scatter detectors, and three fluorescence detectors, was used to detect the fluorescence from labeled bacteria. The three fluorescence detectors in the flow cytometer in that initial experiment had the following optical filters; 527 nm Bandpass (FL1), 590 nm Bandpass (FL2), and a 630 nm Longpass (FL3). The flow cytometer utilizes a system that provides volumetric measurement of the sample analyzed and yields a count per unit volume. […] The conclusion was that the background fluorescent signal from the various components in raw milk, and the non-specific binding of the dye to these components, dominated the signal such that it was impossible to detect any bacteria-related fluorescence. Additionally the large scatter signals detected in flow cytometry from the milk fat globules, casein micelles and other components in the milk, prevented the use of forward and right angle scatter in the detection of bacteria. To prevent the background signal, the inventors of the present invention made an attempt to minimize such interference. […]
compound,measurement,setting,value
CC[N+](C)(CC)CCC[n+]1c(-c2ccccc2)c2cc(N)ccc2c2ccc(N)cc21.[I-].[I-] [Propidium iodide],usefulness as alternative dye for GelGreen in the method,bacteria in milk samples; conclusion over all milk samples,does not work
same,IBC counts,"bacteria in milk samples; milk samples except milk spiked with E. coli and cooked, 68° C., 1 min, pH 10.6",Almost no IBC counts
same,cell membrane permeability,cells,only penetrates cell membranes of dead cells
CCCN1C=C/C(=C\c2sc3ccccc3[n+]2C)c2ccccc21 [SYBR® Safe],staining of E. coli,"E. coli; Tris-buffered saline pH 8.5, room temperature (23° C.)",does not need heating to stain E. coli
same,cell membrane permeability,cells; property stated for the dye,readily crosses the membrane of cells
CN1/C(=C/c2cc[n+](CCC[N+](C)(C)CCC[N+](C)(C)CCC[n+]3ccc(/C=C4\Sc5ccccc5N4C)c4ccccc43)c3ccccc23)Sc2ccccc21.[I-].[I-].[I-].[I-] [TOTO®-1],staining of E. coli,"E. coli; Tris-buffered saline pH 8.5, 50° C., approximately 4.5 min",minimal staining; also recorded: does not stain E. coli
same,cell membrane permeability,cells; property stated for the dye,cell impermeant
SYTO® 9,fluorescence signals of raw milk with spiked bacteria,bacteria in raw milk,identical to the fluorescence detected in raw milk without spiked bacteria
